Laboratory results: ChEMBL document CHEMBL1268964, “CWJ-081, a novel 3-arylisoquinoline derivative, induces apoptosis in human leukemia HL-60 cells partially involves reactive oxygen species through c-Jun NH2-terminal kinase pathway” (Bioorg Med Chem Lett, 2010)
Active and inactive are the calls of the source. The calls are words filed in the database; no cut-off is given here.

Tests used:
HL-60 [1] = test: Cytotoxicity against human HL60 cells by MTT assay; assay type: functional, cell-based
U-937 [2] = test: Cytotoxicity against human U937 cells by MTT assay; assay type: functional, cell-based
K562 [3] = test: Cytotoxicity against human K562 cells by MTT assay; assay type: functional, cell-based
HeLa = test: Cytotoxicity against human HeLa cells by MTT assay; assay type: functional, cell-based
Ca-Ski = test: Cytotoxicity against human CaSki cells by MTT assay; assay type: functional, cell-based
[4] = Cytotoxicity against human Chang cells by MTT assay; assay type: cell-based
[5] = Cytotoxicity against human L-132 cells by MTT assay; assay type: cell-based; conditions: L132
[6] = Cytotoxicity against human IOSE-80PC cells by MTT assay; assay type: cell-based
HL-60 [7] = test: Induction of apoptosis in human HL60 cells assessed as early apoptotic cells at 10 uM by Annexin V staining; assay type: functional, cell-based; conditions: TDE = time-dependent effect
U-937 [8] = test: Induction of apoptosis in human U937 cells assessed as early apoptotic cells at 10 uM by Annexin V staining; assay type: functional, cell-based; conditions: TDE = time-dependent effect
K562 [9] = test: Induction of apoptosis in human K562 cells assessed as early apoptotic cells at 10 uM by Annexin V staining; assay type: functional, cell-based; conditions: TDE = time-dependent effect
HL-60 [10] = test: Induction of apoptosis in human HL60 cells assessed as intercucleosomal DNA fragmentation at 10 uM by […] staining by flow cytometry; assay type: functional, cell-based; conditions: TDE = time-dependent effect
U-937 [11] = test: Induction of apoptosis in human U937 cells assessed as intercucleosomal DNA fragmentation at 10 uM by […] staining by flow cytometry; assay type: functional, cell-based; conditions: TDE = time-dependent effect
K562 [12] = test: Induction of apoptosis in human K562 cells assessed as intercucleosomal DNA fragmentation at 10 uM by […] staining by flow cytometry; assay type: functional, cell-based; conditions: TDE = time-dependent effect
HL-60 [13] = test: Induction of apoptosis in human HL60 cells assessed as procaspase 8 cleavage at 10 uM after 36 hrs by Western blot analysis; assay type: functional, cell-based
HL-60 [14] = test: Induction of apoptosis in human HL60 cells assessed as procaspase 9 cleavage at 10 uM after 36 hrs by Western blot analysis; assay type: functional, cell-based
HL-60 [15] = test: Induction of apoptosis in human HL60 cells assessed as procaspase 3 cleavage at 10 uM after 36 hrs by Western blot analysis; assay type: functional, cell-based
HL-60 [16] = test: Induction of apoptosis in human HL60 cells assessed as PARP-1 at 10 uM after 36 hrs by Western blot analysis; assay type: functional, cell-based
HL-60 [17] = test: Induction of apoptosis in human HL60 cells assessed as loss of mitochondrial membrane potential at 50 uM after 24 hrs by DiOC6 staining; assay type: functional, cell-based
HL-60 [18] = test: Induction of apoptosis in human HL60 cells assessed as Bax protein expression at 10 uM after 12 hrs by Western blot analysis; assay type: functional, cell-based
HL-60 [19] = test: Induction of apoptosis in human HL60 cells assessed as Bcl-2 protein expression at 10 uM after 12 hrs by Western blot analysis; assay type: functional, cell-based
HL-60 [20] = test: Induction of apoptosis in human HL60 cells assessed as cytochrome c release from mitochondria at 10 uM after 12 hrs by Western blot analysis; assay type: functional, cell-based
HL-60 [21] = test: Induction of apoptosis in human HL60 cells assessed as cytochrome c release from mitochondria at 10 uM after 24 hrs by Western blot analysis; assay type: functional, cell-based
HL-60 [22] = test: Induction of apoptosis in human HL60 cells assessed as Bcl-2 family expression at 10 uM by Western blot analysis; assay type: functional, cell-based; conditions: TDE = time-dependent effect
HL-60 [23] = test: Induction of apoptosis in human HL60 cells assessed as increase in ROS production; assay type: functional, cell-based; conditions: TDE = time-dependent effect
HL-60 [24] = test: Induction of apoptosis in human HL60 cells assessed as increase in ROS production in presence of 10 mM NAC; assay type: functional, cell-based
HL-60 [25] = test: Induction of apoptosis in NAC pretreated human HL60 cells assessed as increase in ROS production; assay type: functional, cell-based
HL-60 [26] = test: Induction of apoptosis in human HL60 cells assessed as increase in JNK phosphorylation level at 6 hrs; assay type: functional, cell-based
HL-60 [27] = test: Induction of apoptosis in human HL60 cells assessed as increase in JNK phosphorylation level at 12 hrs; assay type: functional, cell-based
HL-60 [28] = test: Induction of apoptosis in human HL60 cells in presence of 10 uM SP600125 JNK inhibitor; assay type: functional, cell-based
HL-60 [29] = test: Induction of apoptosis in NAC pretreated human HL60 cells assessed as increase in JNK phosphorylation level; assay type: functional, cell-based

SMILES: CCc1cc2c(cc1-c1cc3ccc(OC)c(OC)c3c(=O)n1C)OCO2
- IC50 (HL-60 [1]): 5.62 µM
- IC50 (U-937 [2]): 33.2 µM
- IC50 (K562 [3]): 38.1 µM
- IC50 (HeLa): 42.2 µM
- IC50 (Ca-Ski): 47.3 µM
- IC50 [4]: 39.9 µM
- IC50 [5]: 59.4 µM
- IC50 [6]: 68 µM
- Activity (HL-60 [7]): tde
- Activity (U-937 [8]): tde
- Activity (K562 [9]): tde
- Activity (HL-60 [10]): tde
- Activity (U-937 [11]): tde
- Activity (K562 [12]): tde
- Activity (HL-60 [13]): Active
- Activity (HL-60 [14]): Active
- Activity (HL-60 [15]): Active
- Activity (HL-60 [16]): Active
- Activity (HL-60 [17]): Active
- Activity (HL-60 [18]): Active
- Activity (HL-60 [19]): Active
- Activity (HL-60 [20]): Active
- Activity (HL-60 [21]): Active
- Activity (HL-60 [22]): tde
- Activity (HL-60 [23]): tde
- Activity (HL-60 [24]): inactive
- Activity (HL-60 [25]): inactive
- Activity (HL-60 [26]): Active
- Activity (HL-60 [27]): inactive
- Activity (HL-60 [28]): Active
- Activity (HL-60 [29]): inactive
